Test results published in PubChem BioAssay AID1963844 (Molecular Pharmacology Branch, DTP, NCI, 2024).

System: 422866-222-R5-J1-PDC complex spheroid viability
Test: Anticancer human tumor 422866-222-R5-J1-PDC patient-derived pancreatic adenocarcinoma cell line growth inhibition [POLQ]
Conditions: for IC50: curve of first compound; for viability, T/C: stronger effect = lower value
Description: Multicellular complex tumor spheroid response to Polymerase (POL) inhibitors (novobiocin, ART-558, RP6685) in combination with a variety of drugs and investigational agents in selected tumor cell lines
The POL inhibitors (novobiocin, ART-558, and RP6685) were evaluated both individually and in combination with standard of care and investigational anticancer small molecules within a complex spheroid model of solid tumors. . Complex spheroids include a stromal component modeled by human endothelial cells (HUVEC) and fibroblasts modeled by human mesenchymal stem cells (MSCs). The concentration ranges selected for each drug and investigational agent were based upon clinically achievable concentrations if the clinical Cmax of the agent was known.
Compounds. The drugs and investigational agents: novobiocin (NSC847541), ART-558 (NSC835418), RP-6685 (NSC848927), peposertib (NSC802822), ceralasertib (NSC780249), elimusertib (NSC800525), camonsertib (NSC841442), AZD-1390 (NSC803789), olaparib (NSC753686), talazoparib (NSC767125), rucaparib (NSC756644), sotorasib (NSC818433), MRTX-1133 (NSC836407), SN-38 (NSC673596), topotecan (NSC609699), epotoside (NSC141540), doxorubicin (NSC123127), gemcitabine (NSC613327), 5-fluorouracil (NSC19893), paclitaxel (NSC125973), vemurafenib (NSC761431), MSA-2 (NSC828583), SN-011 (NSC837082), adavosertib (NSC754352), prexasertib (NSC758257), carboplatin (NSC241240) and oxaliplatin (NSC266046), were obtained from the National Cancer Institute (NCI) Developmental Therapeutics Program Chemical Repository (21). The FDA-approved anticancer drug set is available from the Developmental Therapeutics Program at https://dtp.cancer.gov/organization/dscb/obtaining/. […] The stock solutions were prepared in dimethyl sulfoxide (DMSO, Sigma-Aldrich, St. Louis, MO, cat. D2650), except for the platinum compounds which were prepared in saline (Quality Biological, Gaithersburg, MD, cat. 114-055-101), at 800-fold the tested concentration and stored at -70 degrees C prior to their use. All drugs and investigational agents were tested over a range starting from a high concentration at or near the clinical Cmax and decreasing in half-log increments. If the clinical Cmax for an agent had not been determined, the highest concentration tested was 10 microM, except for SN-38, which was tested at a high concentration of 1 microM.
Cell Culture. All cells were maintained in an incubator at 37 degrees C and 5% CO2 with 95% humidity. The PDC lines were cultured according to standard operating procedures established by the NCI PDMR (https://pdmr.cancer.gov). Table 3 of the manuscript, lists the cell lines along with the number of the three cell types plated to form the mct-spheroids and media for tumor cell growth. After thawing, all PDC lines, except 997537-175-T-J1-PDC and 415267-285-R-J2-PDC, were cultured in Matrigel-coated flasks prepared with a working solution of 1X Ham's F-12 nutrient mix, without supplementation (Thermo Fisher Scientific, cat. 11765054), 100 U/mL penicillin-streptomycin (Thermo Fisher Scientific, cat. 15140122), and 2.5% Matrigel (Corning Inc., Corning, NY, cat. 354248) for the first three passages. The two PDC lines 997537-175-T-J1-PDC and 415267-285-R-J2-PDC were cultured on uncoated flasks. The 857933-349-R-J2-PDC line was cultured in 6C/Colon 1B media containing advanced DMEM/F-12 (Thermo Fisher Scientific, cat. 12634028), 10 mM HEPES (Thermo Fisher Scientific, cat. 15630080), 1X GlutaMAX supplement (Thermo Fisher Scientific, cat. 35050061), 0.1 mg/mL primocin (InvivoGen, San Diego, CA, cat. ant-pm-2), 10% defined fetal bovine serum, heat inactivated (HyClone Laboratories Inc., Logan, UT, cat. SH30070.03HI), 50% L-WRN conditioned media (ATCC, cat. CRL-3276), 1.25 mM N-Acetyl-L-cysteine (Sigma-Aldrich, cat. A9165), 10 mM nicotinamide (Sigma-Aldrich, cat. N0636), 1X B-27 supplement (Thermo Fisher Scientific, cat. 17504044), 1X N-2 supplement (Thermo Fisher Scientific, cat. […]

[1] = second compound 0.0316 µM, first compound 0.0316 µM
[2] = second compound 0.0316 µM, first compound 0.1 µM
[3] = second compound 0.0316 µM, first compound 0.316 µM
[4] = second compound 0.0316 µM, first compound 1 µM
[5] = second compound 0.0316 µM, first compound 3.16 µM
[6] = second compound 0.0316 µM, first compound 10 µM
[7] = second compound 0.1 µM, first compound 0.0316 µM
[8] = second compound 0.1 µM, first compound 0.1 µM
[9] = second compound 0.1 µM, first compound 0.316 µM
[10] = second compound 0.1 µM, first compound 1 µM
[11] = second compound 0.1 µM, first compound 3.16 µM
[12] = second compound 0.1 µM, first compound 10 µM
[13] = second compound 0.316 µM, first compound 0.0316 µM
[14] = second compound 0.316 µM, first compound 0.1 µM
[15] = second compound 0.316 µM, first compound 0.316 µM
[16] = second compound 0.316 µM, first compound 1 µM
[17] = second compound 0.316 µM, first compound 3.16 µM
[18] = second compound 0.316 µM, first compound 10 µM
[19] = second compound 1 µM, first compound 0.0316 µM
[20] = second compound 1 µM, first compound 0.1 µM
[21] = second compound 1 µM, first compound 0.316 µM
[22] = second compound 1 µM, first compound 1 µM
[23] = second compound 1 µM, first compound 3.16 µM
[24] = second compound 1 µM, first compound 10 µM
[25] = second compound 3.16 µM, first compound 0.0316 µM
[26] = second compound 3.16 µM, first compound 0.1 µM
[27] = second compound 3.16 µM, first compound 0.316 µM
[28] = second compound 3.16 µM, first compound 1 µM
[29] = second compound 3.16 µM, first compound 3.16 µM
[30] = second compound 3.16 µM, first compound 10 µM
[31] = second compound 10 µM, first compound 0.0316 µM
[32] = second compound 10 µM, first compound 0.1 µM
[33] = second compound 10 µM, first compound 0.316 µM
[34] = second compound 10 µM, first compound 1 µM
[35] = second compound 10 µM, first compound 3.16 µM
[36] = second compound 10 µM, first compound 10 µM
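Note: spheroids exposed to compounds for one week before readout.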
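Throughout, for viability, T/C: percent of DMSO vehicle wells luminescence so 100% = untreated viability.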

## C#Cc1c(F)ccc2cc(O)cc(-c3ncc4c(N5CC6CCC(C5)N6)nc(OCC56CCCN5CC(F)C6)nc4c3F)c12 (centres undefined) + Cc1cccc(N(C)C(=O)C2C(O)CCN2c2nc(C)cc(C(F)(F)F)c2C#N)c1
Second compound 0.0316 µM
  IC50: 758 nM
Second compound 0.1 µM
  IC50: 1090 nM
Second compound 0.316 µM
  IC50: 762 nM
Second compound 1 µM
  IC50: 712 nM
Second compound 3.16 µM
  IC50: 480 nM
Second compound 10 µM
  IC50: 465 nM
[1]
  viability, T/C: 104%
[2]
  viability, T/C: 79.8%
[3]
  viability, T/C: 65.2%
[4]
  viability, T/C: 45.5%
[5]
  viability, T/C: 33%
[6]
  viability, T/C: 28.7%
[7]
  viability, T/C: 92.1%
[8]
  viability, T/C: 87.2%
[9]
  viability, T/C: 65.7%
[10]
  viability, T/C: 54.6%
[11]
  viability, T/C: 33.3%
[12]
  viability, T/C: 25.9%
[13]
  viability, T/C: 102%
[14]
  viability, T/C: 80%
[15]
  viability, T/C: 67.6%
[16]
  viability, T/C: 46%
[17]
  viability, T/C: 29.3%
[18]
  viability, T/C: 29.1%
[19]
  viability, T/C: 95.8%
[20]
  viability, T/C: 96.9%
[21]
  viability, T/C: 68.1%
[22]
  viability, T/C: 43.7%
[23]
  viability, T/C: 33.5%
[24]
  viability, T/C: 32%
[25]
  viability, T/C: 92.8%
[26]
  viability, T/C: 74.4%
[27]
  viability, T/C: 57%
[28]
  viability, T/C: 40.8%
[29]
  viability, T/C: 30.3%
[30]
  viability, T/C: 33.9%
[31]
  viability, T/C: 84.3%
[32]
  viability, T/C: 69.2%
[33]
  viability, T/C: 56.1%
[34]
  viability, T/C: 39.9%
[35]
  viability, T/C: 32.3%
[36]
  viability, T/C: 27.6%

## CCc1cc2c(N3CCc4c(cc(Cn5ccnc5)cc4-c4cn(C)nc4C(F)(F)F)C3=O)cc(C)nc2c(OC)n1 + Cc1cccc(N(C)C(=O)C2C(O)CCN2c2nc(C)cc(C(F)(F)F)c2C#N)c1
Second compound 0.0316 µM
  IC50: > 10000 nM
Second compound 0.1 µM
  IC50: > 10000 nM
Second compound 0.316 µM
  IC50: > 10000 nM
Second compound 1 µM
  IC50: > 10000 nM
Second compound 3.16 µM
  IC50: > 10000 nM
Second compound 10 µM
  IC50: > 10000 nM
[1]
  viability, T/C: 78.4%
[2]
  viability, T/C: 73.7%
[3]
  viability, T/C: 93.1%
[4]
  viability, T/C: 99.6%
[5]
  viability, T/C: 104%
[6]
  viability, T/C: 98%
[7]
  viability, T/C: 84.6%
[8]
  viability, T/C: 83.5%
[9]
  viability, T/C: 92.2%
[10]
  viability, T/C: 88.7%
[11]
  viability, T/C: 101%
[12]
  viability, T/C: 119%
[13]
  viability, T/C: 91.8%
[14]
  viability, T/C: 88.7%
[15]
  viability, T/C: 81.2%
[16]
  viability, T/C: 94.9%
[17]
  viability, T/C: 104%
[18]
  viability, T/C: 94.4%
[19]
  viability, T/C: 84.5%
[20]
  viability, T/C: 82.7%
[21]
  viability, T/C: 86.6%
[22]
  viability, T/C: 82.8%
[23]
  viability, T/C: 93.8%
[24]
  viability, T/C: 93.5%
[25]
  viability, T/C: 86.3%
[26]
  viability, T/C: 85.8%
[27]
  viability, T/C: 92.4%
[28]
  viability, T/C: 91.6%
[29]
  viability, T/C: 99.8%
[30]
  viability, T/C: 90.6%
[31]
  viability, T/C: 88.9%
[32]
  viability, T/C: 88.5%
[33]
  viability, T/C: 93.9%
[34]
  viability, T/C: 78.2%
[35]
  viability, T/C: 95.8%
[36]
  viability, T/C: 94.8%
